From the NIST ThermoML archive (doi:10.1016/j.jct.2016.09.030)
± gives the expanded uncertainty stated by the source.

Test: refractive index (Na D-line) (dimensionless); xn = mol fraction of the nth substance listed
Conditions: 100 kPa, Liquid, Standard Abbe refractometry

CCOC(=O)CCC(=O)OCC [diethyl butanedioate] + CC(C)CCO
refractive index
Conditions	x1 = 0.1	x1 = 0.2	x1 = 0.3	x1 = 0.3999	x1 = 0.5	x1 = 0.5999	x1 = 0.7	x1 = 0.7999	x1 = 0.9002	x1 = 1
288.15 K	1.41 ± 0.0028	1.4114 ± 0.0028	1.4129 ± 0.0028	1.4144 ± 0.0028	1.4158 ± 0.0028	1.4172 ± 0.0028	1.4184 ± 0.0028	1.4197 ± 0.0028	1.4208 ± 0.0028	1.4217 ± 0.0028
293.15 K	1.4079 ± 0.0028	1.4093 ± 0.0028	1.4108 ± 0.0028	1.4123 ± 0.0028	1.4136 ± 0.0028	1.415 ± 0.0028	1.4163 ± 0.0028	1.4175 ± 0.0028	1.4186 ± 0.0028	1.4195 ± 0.0028
298.15 K	1.4058 ± 0.0028	1.4072 ± 0.0028	1.4087 ± 0.0028	1.4101 ± 0.0028	1.4115 ± 0.0028	1.4128 ± 0.0028	1.414 ± 0.0028	1.4153 ± 0.0028	1.4164 ± 0.0028	1.4173 ± 0.0028
303.15 K	1.4037 ± 0.0028	1.4051 ± 0.0028	1.4065 ± 0.0028	1.4079 ± 0.0028	1.4093 ± 0.0028	1.4106 ± 0.0028	1.4119 ± 0.0028	1.4131 ± 0.0028	1.4142 ± 0.0028	1.4151 ± 0.0028
308.15 K	1.4016 ± 0.0028	1.4029 ± 0.0028	1.4043 ± 0.0028	1.4057 ± 0.0028	1.4071 ± 0.0028	1.4084 ± 0.0028	1.4096 ± 0.0028	1.4108 ± 0.0028	1.412 ± 0.0028	1.4129 ± 0.0028
313.15 K	1.3996 ± 0.0028	1.4008 ± 0.0028	1.4022 ± 0.0028	1.4036 ± 0.0028	1.4049 ± 0.0028	1.4062 ± 0.0028	1.4075 ± 0.0028	1.4087 ± 0.0028	1.4098 ± 0.0028	1.4108 ± 0.0028
318.15 K	1.3975 ± 0.0028	1.3988 ± 0.0028	1.4001 ± 0.0028	1.4014 ± 0.0028	1.4028 ± 0.0028	1.4041 ± 0.0028	1.4054 ± 0.0028	1.4066 ± 0.0028	1.4077 ± 0.0028	1.4088 ± 0.0028
323.15 K	1.3954 ± 0.0028	1.3966 ± 0.0028	1.398 ± 0.0028	1.3993 ± 0.0028	1.4006 ± 0.0028	1.4019 ± 0.0028	1.4032 ± 0.0028	1.4045 ± 0.0028	1.4056 ± 0.0028	1.4067 ± 0.0028

CCOC(=O)CCC(=O)OCC [diethyl butanedioate] + CC(C)CO
refractive index
Conditions	x1 = 0.0999	x1 = 0.2	x1 = 0.3001	x1 = 0.4	x1 = 0.4999	x1 = 0.5999	x1 = 0.6999	x1 = 0.8	x1 = 0.9	x1 = 1
288.15 K	1.4016 ± 0.0028	1.4047 ± 0.0028	1.4076 ± 0.0028	1.4103 ± 0.0028	1.4127 ± 0.0028	1.4148 ± 0.0028	1.4168 ± 0.0028	1.4186 ± 0.0028	1.4203 ± 0.0028	1.4217 ± 0.0028
293.15 K	1.3995 ± 0.0028	1.4025 ± 0.0028	1.4055 ± 0.0028	1.4081 ± 0.0028	1.4105 ± 0.0028	1.4127 ± 0.0028	1.4146 ± 0.0028	1.4164 ± 0.0028	1.4181 ± 0.0028	1.4195 ± 0.0028
298.15 K	1.3974 ± 0.0028	1.4004 ± 0.0028	1.4033 ± 0.0028	1.4059 ± 0.0028	1.4083 ± 0.0028	1.4104 ± 0.0028	1.4124 ± 0.0028	1.4142 ± 0.0028	1.4159 ± 0.0028	1.4173 ± 0.0028
303.15 K	1.3952 ± 0.0028	1.3982 ± 0.0028	1.4011 ± 0.0028	1.4037 ± 0.0028	1.4061 ± 0.0028	1.4082 ± 0.0028	1.4102 ± 0.0028	1.412 ± 0.0028	1.4137 ± 0.0028	1.4151 ± 0.0028
308.15 K	1.3929 ± 0.0028	1.396 ± 0.0028	1.3989 ± 0.0028	1.4015 ± 0.0028	1.4038 ± 0.0028	1.406 ± 0.0028	1.408 ± 0.0028	1.4098 ± 0.0028	1.4115 ± 0.0028	1.4129 ± 0.0028
313.15 K	1.3908 ± 0.0028	1.3938 ± 0.0028	1.3966 ± 0.0028	1.3992 ± 0.0028	1.4016 ± 0.0028	1.4037 ± 0.0028	1.4058 ± 0.0028	1.4076 ± 0.0028	1.4093 ± 0.0028	1.4108 ± 0.0028
318.15 K	1.3886 ± 0.0028	1.3916 ± 0.0028	1.3943 ± 0.0028	1.397 ± 0.0028	1.3993 ± 0.0028	1.4015 ± 0.0028	1.4036 ± 0.0028	1.4054 ± 0.0028	1.4071 ± 0.0028	1.4088 ± 0.0028
323.15 K	1.3863 ± 0.0028	1.3894 ± 0.0028	1.3921 ± 0.0028	1.3947 ± 0.0028	1.3971 ± 0.0028	1.3993 ± 0.0028	1.4013 ± 0.0028	1.4032 ± 0.0028	1.405 ± 0.0028	1.4067 ± 0.0028

CCCCCCCC(=O)OCC [ethyl octanoate] + CC(C)CCO
refractive index
Conditions	x1 = 0.1	x1 = 0.2001	x1 = 0.3	x1 = 0.4	x1 = 0.5001	x1 = 0.5999	x1 = 0.7003	x1 = 0.7998	x1 = 0.9001	x1 = 1
288.15 K	1.4104 ± 0.0028	1.412 ± 0.0028	1.4134 ± 0.0028	1.4146 ± 0.0028	1.4156 ± 0.0028	1.4166 ± 0.0028	1.4175 ± 0.0028	1.4183 ± 0.0028	1.4191 ± 0.0028	1.4199 ± 0.0028
293.15 K	1.4083 ± 0.0028	1.4099 ± 0.0028	1.4112 ± 0.0028	1.4124 ± 0.0028	1.4135 ± 0.0028	1.4144 ± 0.0028	1.4153 ± 0.0028	1.4161 ± 0.0028	1.4169 ± 0.0028	1.4177 ± 0.0028
298.15 K	1.4063 ± 0.0028	1.4078 ± 0.0028	1.4091 ± 0.0028	1.4102 ± 0.0028	1.4113 ± 0.0028	1.4122 ± 0.0028	1.4131 ± 0.0028	1.4139 ± 0.0028	1.4147 ± 0.0028	1.4155 ± 0.0028
303.15 K	1.4042 ± 0.0028	1.4056 ± 0.0028	1.4069 ± 0.0028	1.4081 ± 0.0028	1.4091 ± 0.0028	1.41 ± 0.0028	1.4109 ± 0.0028	1.4116 ± 0.0028	1.4125 ± 0.0028	1.4132 ± 0.0028
308.15 K	1.4021 ± 0.0028	1.4035 ± 0.0028	1.4047 ± 0.0028	1.4059 ± 0.0028	1.4069 ± 0.0028	1.4078 ± 0.0028	1.4087 ± 0.0028	1.4094 ± 0.0028	1.4102 ± 0.0028	1.411 ± 0.0028
313.15 K	1.3999 ± 0.0028	1.4013 ± 0.0028	1.4026 ± 0.0028	1.4037 ± 0.0028	1.4047 ± 0.0028	1.4056 ± 0.0028	1.4064 ± 0.0028	1.4072 ± 0.0028	1.408 ± 0.0028	1.4088 ± 0.0028
318.15 K	1.3978 ± 0.0028	1.3992 ± 0.0028	1.4004 ± 0.0028	1.4015 ± 0.0028	1.4024 ± 0.0028	1.4034 ± 0.0028	1.4042 ± 0.0028	1.405 ± 0.0028	1.4058 ± 0.0028	1.4066 ± 0.0028
323.15 K	1.3957 ± 0.0028	1.397 ± 0.0028	1.3982 ± 0.0028	1.3993 ± 0.0028	1.4003 ± 0.0028	1.4012 ± 0.0028	1.402 ± 0.0028	1.4027 ± 0.0028	1.4036 ± 0.0028	1.4044 ± 0.0028

CCCCCCCC(=O)OCC [ethyl octanoate] + CC(C)CO
refractive index
Conditions	x1 = 0.1001	x1 = 0.1999	x1 = 0.3	x1 = 0.4	x1 = 0.5	x1 = 0.5999	x1 = 0.6999	x1 = 0.7999	x1 = 0.9	x1 = 1
288.15 K	1.4018 ± 0.0028	1.4052 ± 0.0028	1.408 ± 0.0028	1.4102 ± 0.0028	1.4123 ± 0.0028	1.4142 ± 0.0028	1.4158 ± 0.0028	1.4173 ± 0.0028	1.4186 ± 0.0028	1.4199 ± 0.0028
293.15 K	1.3997 ± 0.0028	1.403 ± 0.0028	1.4058 ± 0.0028	1.408 ± 0.0028	1.4101 ± 0.0028	1.412 ± 0.0028	1.4136 ± 0.0028	1.4151 ± 0.0028	1.4164 ± 0.0028	1.4177 ± 0.0028
298.15 K	1.3976 ± 0.0028	1.4009 ± 0.0028	1.4036 ± 0.0028	1.4058 ± 0.0028	1.4079 ± 0.0028	1.4097 ± 0.0028	1.4114 ± 0.0028	1.4128 ± 0.0028	1.4142 ± 0.0028	1.4155 ± 0.0028
303.15 K	1.3955 ± 0.0028	1.3987 ± 0.0028	1.4014 ± 0.0028	1.4036 ± 0.0028	1.4056 ± 0.0028	1.4075 ± 0.0028	1.4091 ± 0.0028	1.4106 ± 0.0028	1.4119 ± 0.0028	1.4132 ± 0.0028
308.15 K	1.3933 ± 0.0028	1.3965 ± 0.0028	1.3992 ± 0.0028	1.4014 ± 0.0028	1.4034 ± 0.0028	1.4052 ± 0.0028	1.4069 ± 0.0028	1.4084 ± 0.0028	1.4097 ± 0.0028	1.411 ± 0.0028
313.15 K	1.3911 ± 0.0028	1.3942 ± 0.0028	1.3969 ± 0.0028	1.3991 ± 0.0028	1.4012 ± 0.0028	1.403 ± 0.0028	1.4046 ± 0.0028	1.4061 ± 0.0028	1.4075 ± 0.0028	1.4088 ± 0.0028
318.15 K	1.3889 ± 0.0028	1.392 ± 0.0028	1.3947 ± 0.0028	1.3968 ± 0.0028	1.3989 ± 0.0028	1.4007 ± 0.0028	1.4024 ± 0.0028	1.4039 ± 0.0028	1.4052 ± 0.0028	1.4066 ± 0.0028
323.15 K	1.3867 ± 0.0028	1.3898 ± 0.0028	1.3925 ± 0.0028	1.3946 ± 0.0028	1.3967 ± 0.0028	1.3985 ± 0.0028	1.4001 ± 0.0028	1.4017 ± 0.0028	1.403 ± 0.0028	1.4044 ± 0.0028
